pIC50: −log10 of the molar value.
Test system: 991263-137-R1-J2-PDC complex spheroid viability
Assay: Anticancer human tumor 991263-137-R1-J2-PDC patient-derived colon adenocarcinoma cell line growth inhibition [POLQ]
Details: for pIC50: curve of first compound; for viability, T/C: stronger effect = lower value
Outline: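 Complex spheroid viability model combining PDC tumour cells with endothelial (HUVEC) and MSC stromal cells. Novobiocin, ART-558 or RP6685 were tested singly and in combination with standard and investigational anticancer drugs. Each was titrated in half-log steps from near clinical Cmax, or from 10 microM where Cmax was unknown.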

[1] = second compound 0.0316 µM, first compound 0.0316 µM
[2] = second compound 0.0316 µM, first compound 0.1 µM
[3] = second compound 0.0316 µM, first compound 0.316 µM
[4] = second compound 0.0316 µM, first compound 1 µM
[5] = second compound 0.0316 µM, first compound 3.16 µM
[6] = second compound 0.0316 µM, first compound 10 µM
[7] = second compound 0.1 µM, first compound 0.0316 µM
[8] = second compound 0.1 µM, first compound 0.1 µM
[9] = second compound 0.1 µM, first compound 0.316 µM
[10] = second compound 0.1 µM, first compound 1 µM
[11] = second compound 0.1 µM, first compound 3.16 µM
[12] = second compound 0.1 µM, first compound 10 µM
[13] = second compound 0.316 µM, first compound 0.0316 µM
[14] = second compound 0.316 µM, first compound 0.1 µM
[15] = second compound 0.316 µM, first compound 0.316 µM
[16] = second compound 0.316 µM, first compound 1 µM
[17] = second compound 0.316 µM, first compound 3.16 µM
[18] = second compound 0.316 µM, first compound 10 µM
[19] = second compound 1 µM, first compound 0.0316 µM
[20] = second compound 1 µM, first compound 0.1 µM
[21] = second compound 1 µM, first compound 0.316 µM
[22] = second compound 1 µM, first compound 1 µM
[23] = second compound 1 µM, first compound 3.16 µM
[24] = second compound 1 µM, first compound 10 µM
[25] = second compound 3.16 µM, first compound 0.0316 µM
[26] = second compound 3.16 µM, first compound 0.1 µM
[27] = second compound 3.16 µM, first compound 0.316 µM
[28] = second compound 3.16 µM, first compound 1 µM
[29] = second compound 3.16 µM, first compound 3.16 µM
[30] = second compound 3.16 µM, first compound 10 µM
[31] = second compound 10 µM, first compound 0.0316 µM
[32] = second compound 10 µM, first compound 0.1 µM
[33] = second compound 10 µM, first compound 0.316 µM
[34] = second compound 10 µM, first compound 1 µM
[35] = second compound 10 µM, first compound 3.16 µM
[36] = second compound 10 µM, first compound 10 µM
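Also: spheroids exposed to compounds for 7 days before readout.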
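For viability, T/C in this document: 100% = DMSO vehicle control viability.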

SMILES: O=c1[nH]cc(F)c(=O)[nH]1 + COC1C(OC(N)=O)C(O)C(Oc2ccc3c(O)c(NC(=O)c4ccc(O)c(CC=C(C)C)c4)c(=O)oc3c2C)OC1(C)C
- pIC50 (second compound 0.0316 µM): < 5.00
- pIC50 (second compound 0.1 µM): < 5.00
- pIC50 (second compound 0.316 µM): < 5.00
- pIC50 (second compound 1 µM): < 5.00
- pIC50 (second compound 3.16 µM): < 5.00
- pIC50 (second compound 10 µM): < 5.00
- viability, T/C [1]: 94%
- viability, T/C [2]: 101%
- viability, T/C [3]: 91%
- viability, T/C [4]: 94%
- viability, T/C [5]: 87%
- viability, T/C [6]: 79.3%
- viability, T/C [7]: 103%
- viability, T/C [8]: 104%
- viability, T/C [9]: 108%
- viability, T/C [10]: 82.1%
- viability, T/C [11]: 95.1%
- viability, T/C [12]: 62.5%
- viability, T/C [13]: 87.4%
- viability, T/C [14]: 118%
- viability, T/C [15]: 76.6%
- viability, T/C [16]: 92.6%
- viability, T/C [17]: 88.1%
- viability, T/C [18]: 84.4%
- viability, T/C [19]: 99%
- viability, T/C [20]: 97.8%
- viability, T/C [21]: 101%
- viability, T/C [22]: 82.6%
- viability, T/C [23]: 77.3%
- viability, T/C [24]: 69.4%
- viability, T/C [25]: 65%
- viability, T/C [26]: 86.3%
- viability, T/C [27]: 97.9%
- viability, T/C [28]: 92.3%
- viability, T/C [29]: 82.3%
- viability, T/C [30]: 74.9%
- viability, T/C [31]: 90.6%
- viability, T/C [32]: 107%
- viability, T/C [33]: 87.3%
- viability, T/C [34]: 83.7%
- viability, T/C [35]: 90.3%
- viability, T/C [36]: 78.3%

SMILES: O=c1[nH]cc(F)c(=O)[nH]1 + Cc1cccc(N(C)C(=O)C2C(O)CCN2c2nc(C)cc(C(F)(F)F)c2C#N)c1
- pIC50 (second compound 0.0316 µM): < 5.00
- pIC50 (second compound 0.1 µM): < 5.00
- pIC50 (second compound 0.316 µM): < 5.00
- pIC50 (second compound 1 µM): < 5.00
- pIC50 (second compound 3.16 µM): < 5.00
- pIC50 (second compound 10 µM): < 5.00
- viability, T/C [1]: 102%
- viability, T/C [2]: 116%
- viability, T/C [3]: 94%
- viability, T/C [4]: 75.6%
- viability, T/C [5]: 74.8%
- viability, T/C [6]: 84.3%
- viability, T/C [7]: 107%
- viability, T/C [8]: 90.7%
- viability, T/C [9]: 79.6%
- viability, T/C [10]: 93.4%
- viability, T/C [11]: 85.8%
- viability, T/C [12]: 82.3%
- viability, T/C [13]: 124%
- viability, T/C [14]: 101%
- viability, T/C [15]: 93%
- viability, T/C [16]: 83.3%
- viability, T/C [17]: 77.2%
- viability, T/C [18]: 80.9%
- viability, T/C [19]: 110%
- viability, T/C [20]: 108%
- viability, T/C [21]: 97.3%
- viability, T/C [22]: 90.8%
- viability, T/C [23]: 85.4%
- viability, T/C [24]: 76%
- viability, T/C [25]: 108%
- viability, T/C [26]: 94.8%
- viability, T/C [27]: 102%
- viability, T/C [28]: 90.2%
- viability, T/C [29]: 82.5%
- viability, T/C [30]: 62.2%
- viability, T/C [31]: 115%
- viability, T/C [32]: 95.4%
- viability, T/C [33]: 94.1%
- viability, T/C [34]: 70%
- viability, T/C [35]: 85%
- viability, T/C [36]: 69.6%
